In patent US20240025906A1 (NEURON23, INC., priority 2022, published 2024):
Structures can show the parent of a compound that is named as a salt. Where two headings read alike, the source gives them in different places.

Assays:
TYK2 JH2 = target: T1, TYK2 JH2 (Homo sapiens, UniProt P29597); assay: TYK2 JH2 binding assay (KINOMEscan KdELECT competitive binding); conditions: TYK2 JH2 domain, KINOMEscan KdELECT (Assay A)
T1 construct: purchased DiscoverX (KINOMEscan KdELECT service); host or cells: E. coli BL21-derived (T7 phage display) or HEK-293
T1 sequence (P29597 589-875 limits assumed): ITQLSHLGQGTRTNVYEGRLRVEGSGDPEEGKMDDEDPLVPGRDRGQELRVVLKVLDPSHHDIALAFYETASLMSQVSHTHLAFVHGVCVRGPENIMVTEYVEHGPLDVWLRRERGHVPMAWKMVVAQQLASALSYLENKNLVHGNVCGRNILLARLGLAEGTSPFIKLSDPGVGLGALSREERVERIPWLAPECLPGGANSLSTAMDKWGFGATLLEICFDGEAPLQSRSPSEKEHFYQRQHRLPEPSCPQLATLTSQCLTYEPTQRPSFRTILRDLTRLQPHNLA
In short: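 The assay measures displacement of DNA- or phage-tagged TYK2 pseudokinase domain from an affinity resin; compound binding lowers the amount captured, read by qPCR. Incubation lasts 1 h at room temperature.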

[1] = system: JAK1/TYK2 pSTAT5 (Tyr694/699) in THP-1 cell line; assay: IFNa-stimulated JAK1/TYK2 pSTAT5 (Tyr694/699) inhibition cellular assay, AlphaLISA; format: cell-based; conditions: THP-1 cells, AlphaLISA (Assay B)
In short: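 THP-1 cells (2e4/well in HBSS) were preincubated with compound (8 points, 6-fold steps from 10000 nM final) for 1 h at 37 °C, then stimulated with IFNa (added at 100 ng/mL) for 30 min. Lysate pSTAT5 was read by AlphaLISA at 615 nm. IC50 came from a 4-parameter fit with bottom 0 and Hill −1.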

[2] = read-out: Biochemical TYK2_DiscoverX_JH2_BND_Kd
[3] = Homo sapiens, IFNa-stimulated pSTAT5 (Tyr694/699), read-out: Cellular_THP1_IFNa-pSTATS_TYK2
[4] = read-out: Biochemical TYK2_JH2_Kd
[5] = Homo sapiens, IFNa-stimulated, read-out: Cellular THP1_IFNa-pSTATS_IC50

CNc1ncc(-c2nc3cc(N4CCOCC4)ccc3o2)c2cc(NC(=O)[C@@H]3C[C@@H]3C(F)(F)F)ncc12 (single isomer, unassigned) [Example 1066]
Kd (TYK2 JH2; [2]): ≤ 100 nM | IC50 [1, 3]: ≤ 500 nM

CNc1ncc(-c2nc3cc(N4CCOCC4)ccc3o2)c2cc(NC(=O)[C@@H]3C[C@@H]3C(F)(F)F)ncc12 (single isomer, unassigned) [Example 1067]
Kd (TYK2 JH2; [2]): ≤ 100 nM | IC50 ([1]; IFNa-stimulated pSTAT5 (Tyr694/699), read-out: Cellular_THP1_IFNa-pSTATS_TYK2): ≤ 500 nM

CNc1ncc(-c2nc3cc(N4CCOCC4)ccc3o2)c2cc(NC(=O)[C@@H]3C[C@@H]3C(F)F)ncc12 (single isomer, unassigned) [Example 1069]
Kd (TYK2 JH2; [2]): ≤ 100 nM | IC50 [1, 3]: ≤ 500 nM

CNc1ncc(C#Cc2ccc(N3CCOCC3)cc2)c2cc(NC(=O)[C@@H]3C[C@@H]3C(F)F)ncc12 (single isomer, unassigned) [Example 1074]
Kd (TYK2 JH2; [2]): ≤ 100 nM | IC50 [1, 3]: ≤ 500 nM

CNc1ncc(C#Cc2ccc(N3CCOCC3)cc2)c2cc(NC(=O)[C@H]3C[C@H]3C(F)F)ncc12 (single isomer, unassigned) [Example 1075]
Kd (TYK2 JH2; [2]): ≤ 100 nM | IC50 [1, 3]: ≤ 500 nM

CC[C@@H]1CN(c2ccc3nc(-c4cnc(NC)c5cnc(NC(=O)[C@H]6C[C@H]6C)cc45)nn3c2)CCO1 (single isomer, unassigned) [Example 1078]
Kd (TYK2 JH2; [2]): ≤ 100 nM | IC50 [1, 3]: ≤ 500 nM

CC[C@H]1CN(c2ccc3nc(-c4cnc(NC)c5cnc(NC(=O)[C@H]6C[C@H]6C)cc45)nn3c2)CCO1 (single isomer, unassigned) [Example 1079]
Kd (TYK2 JH2; [2]): ≤ 100 nM | IC50 [1, 3]: ≤ 500 nM

CNc1ncc(-c2nc3ccc(N4CCOCC4)cn3n2)c2cc(NC(=O)[C@H]3CC3(F)F)ncc12 (single isomer, unassigned) [Example 1141]
Kd (TYK2 JH2; [2]): ≤ 100 nM | IC50 [1, 3]: ≤ 500 nM

CNc1ncc(-c2ccccc2)c2cc(NC(=O)C3CC3)ncc12 [Example 1, N-(8-(methylamino)-5-phenyl-2,7-naphthyridin-3-yl)cyclopropanecarboxamide]
Kd (TYK2 JH2; [4]): ≤ 100 nM | IC50 [1, 5]: > 500 nM

CNc1nccc2cc(NC(=O)C3CC3)ncc12 [Example 2, N-(8-(methylamino)-2,7-naphthyridin-3-yl)cyclopropanecarboxamide]
Kd (TYK2 JH2; [4]): 100 to 1000 nM | IC50 [1, 5]: > 500 nM

CNc1ncc(Br)c2cc(NC(=O)C3CC3)ncc12 [Example 3, N-(5-bromo-8-(methylamino)-2,7-naphthyridin-3-yl)cyclopropanecarboxamide]
Kd (TYK2 JH2; [4]): ≤ 100 nM | IC50 [1, 5]: > 500 nM

CNc1ncc(-c2ccccn2)c2cc(NC(=O)C3CC3)ncc12 [Example 4, N-(8-(methylamino)-5-(pyridin-2-yl)-2,7-naphthyridin-3-yl)cyclopropanecarboxamide]
Kd (TYK2 JH2; [4]): ≤ 100 nM | IC50 [1, 5]: > 500 nM

CNc1ncc(-c2ncccc2OC)c2cc(NC(=O)C3CC3)ncc12 [Example 5, N-(5-(3-methoxypyridin-2-yl)-8-(methylamino)-2,7-naphthyridin-3-yl)cyclopropanecarboxamide]
Kd (TYK2 JH2; [4]): 100 to 1000 nM | IC50 [1, 5]: > 500 nM

CNc1ncc(-c2ccnn2C)c2cc(NC(=O)C3CC3)ncc12 [Example 6, N-(5-(1-methyl-1H-pyrazol-5-yl)-8-(methylamino)-2,7-naphthyridin-3-yl)cyclopropanecarboxamide]
Kd (TYK2 JH2; [4]): ≤ 100 nM | IC50 [1, 5]: > 500 nM

CNc1ncc(-c2ccccc2OC)c2cc(NC(=O)C3CC3)ncc12 [Example 7, N-(5-(2-methoxyphenyl)-8-(methylamino)-2,7-naphthyridin-3-yl)cyclopropanecarboxamide]
Kd (TYK2 JH2; [4]): 100 to 1000 nM | IC50 [1, 5]: > 500 nM

CNc1ncc(-c2ccncc2OC)c2cc(NC(=O)C3CC3)ncc12 [Example 8, N-(5-(3-methoxypyridin-4-yl)-8-(methylamino)-2,7-naphthyridin-3-yl)cyclopropanecarboxamide]
Kd (TYK2 JH2; [4]): ≤ 100 nM | IC50 [1, 5]: > 500 nM

CNc1ncc(-c2ccncc2)c2cc(NC(=O)C3CC3)ncc12 [Example 9]
Kd (TYK2 JH2; [4]): ≤ 100 nM | IC50 [1, 5]: > 500 nM

CNc1ncc(-c2cc(C)no2)c2cc(NC(=O)C3CC3)ncc12 [Example 10, N-(8-(methylamino)-5-(3-methylisoxazol-5-yl)-2,7-naphthyridin-3-yl)cyclopropanecarboxamide]
Kd (TYK2 JH2; [4]): ≤ 100 nM | IC50 [1, 5]: > 500 nM

CCc1ccccc1-c1cnc(NC)c2cnc(NC(=O)C3CC3)cc12 [Example 11, N-(5-(2-ethylphenyl)-8-(methylamino)-2,7-naphthyridin-3-yl)cyclopropanecarboxamide]
Kd (TYK2 JH2; [4]): 100 to 1000 nM | IC50 [1, 5]: > 500 nM

CNc1ncc(-c2cccc(OC)c2)c2cc(NC(=O)C3CC3)ncc12 [Example 12, N-(5-(3-methoxyphenyl)-8-(methylamino)-2,7-naphthyridin-3-yl)cyclopropanecarboxamide]
Kd (TYK2 JH2; [4]): ≤ 100 nM | IC50 [1, 5]: > 500 nM

CNc1ncc(-c2ccc(OC)cc2)c2cc(NC(=O)C3CC3)ncc12 [Example 13, N-(5-(4-methoxyphenyl)-8-(methylamino)-2,7-naphthyridin-3-yl)cyclopropanecarboxamide formate]
Kd (TYK2 JH2; [4]): ≤ 100 nM | IC50 [1, 5]: > 500 nM

CNc1ncc(-c2cccnc2)c2cc(NC(=O)C3CC3)ncc12 [Example 14, N-(8-(methylamino)-5-(pyridin-3-yl)-2,7-naphthyridin-3-yl)cyclopropanecarboxamide]
Kd (TYK2 JH2; [4]): ≤ 100 nM | IC50 [1, 5]: > 500 nM

CNc1ncc(-c2ccccc2Cl)c2cc(NC(=O)C3CC3)ncc12 [Example 15, N-(5-(2-chlorophenyl)-8-(methylamino)-2,7-naphthyridin-3-yl)cyclopropanecarboxamide]
Kd (TYK2 JH2; [4]): ≤ 100 nM | IC50 [1, 5]: > 500 nM

CNc1ncc(-c2ccc(Cl)cc2)c2cc(NC(=O)C3CC3)ncc12 [Example 16, N-(5-(4-chlorophenyl)-8-(methylamino)-2,7-naphthyridin-3-yl)cyclopropanecarboxamide]
Kd (TYK2 JH2; [4]): ≤ 100 nM | IC50 [1, 5]: > 500 nM

CNc1ncc(-c2ccccc2F)c2cc(NC(=O)C3CC3)ncc12 [Example 17, N-(5-(2-fluorophenyl)-8-(methylamino)-2,7-naphthyridin-3-yl)cyclopropanecarboxamide]
Kd (TYK2 JH2; [4]): ≤ 100 nM | IC50 [1, 5]: > 500 nM

CNc1ncc(-c2ccc(F)cc2)c2cc(NC(=O)C3CC3)ncc12 [Example 18, N-(5-(4-fluorophenyl)-8-(methylamino)-2,7-naphthyridin-3-yl)cyclopropanecarboxamide]
Kd (TYK2 JH2; [4]): ≤ 100 nM | IC50 [1, 5]: > 500 nM

CCn1nccc1-c1cnc(NC)c2cnc(NC(=O)C3CC3)cc12 [Example 19, N-(5-(1-ethyl-1H-pyrazol-5-yl)-8-(methylamino)-2,7-naphthyridin-3-yl)cyclopropanecarboxamide]
Kd (TYK2 JH2; [4]): ≤ 100 nM | IC50 [1, 5]: > 500 nM

CNc1ncc(-c2ccnn2Cc2ccccc2)c2cc(NC(=O)C3CC3)ncc12 [Example 20, N-(5-(1-benzyl-1H-pyrazol-5-yl)-8-(methylamino)-2,7-naphthyridin-3-yl)cyclopropanecarboxamide]
Kd (TYK2 JH2; [4]): ≤ 100 nM | IC50 [1, 5]: > 500 nM

CNc1ncc(-c2ccc3c(c2)OCO3)c2cc(NC(=O)C3CC3)ncc12 [Example 21, N-(5-(benzo[d][1,3]dioxol-5-yl)-8-(methylamino)-2,7-naphthyridin-3-yl)cyclopropanecarboxamide]
Kd (TYK2 JH2; [4]): ≤ 100 nM | IC50 [1, 5]: > 500 nM

CNc1ncc(-c2ccc(C)s2)c2cc(NC(=O)C3CC3)ncc12 [Example 22, N-(8-(methylamino)-5-(5-methylthiophen-2-yl)-2,7-naphthyridin-3-yl)cyclopropanecarboxamide]
Kd (TYK2 JH2; [4]): ≤ 100 nM | IC50 [1, 5]: > 500 nM

CNc1ncc(-c2cc(C)n[nH]2)c2cc(NC(=O)C3CC3)ncc12 [Example 23, N-(5-(3-methyl-1H-pyrazol-5-yl)-8-(methylamino)-2,7-naphthyridin-3-yl)cyclopropanecarboxamide]
Kd (TYK2 JH2; [4]): ≤ 100 nM | IC50 [1, 5]: > 500 nM

CNc1ncc(-c2cn[nH]c2)c2cc(NC(=O)C3CC3)ncc12 [Example 24, N-(8-(methylamino)-5-(1H-pyrazol-4-yl)-2,7-naphthyridin-3-yl)cyclopropanecarboxamide]
Kd (TYK2 JH2; [4]): ≤ 100 nM | IC50 [1, 5]: > 500 nM

CNc1ncc(-c2cnn(C)c2)c2cc(NC(=O)C3CC3)ncc12 [Example 25, N-(5-(1-methyl-1H-pyrazol-4-yl)-8-(methylamino)-2,7-naphthyridin-3-yl)cyclopropanecarboxamide]
Kd (TYK2 JH2; [4]): ≤ 100 nM | IC50 [1, 5]: > 500 nM

CNc1ncc(-c2ncsc2C)c2cc(NC(=O)C3CC3)ncc12 [Example 26, N-(8-(methylamino)-5-(5-methylthiazol-4-yl)-2,7-naphthyridin-3-yl)cyclopropanecarboxamide]
Kd (TYK2 JH2; [4]): ≤ 100 nM | IC50 [1, 5]: > 500 nM

CNc1ncc(C)c2cc(NC(=O)C3CC3)ncc12 [Example 27, N-(5-methyl-8-(methylamino)-2,7-naphthyridin-3-yl)cyclopropanecarboxamide]
Kd (TYK2 JH2; [4]): ≤ 100 nM | IC50 [1, 5]: > 500 nM

CNc1ncc(C2CC2)c2cc(NC(=O)C3CC3)ncc12 [Example 28, N-(5-cyclopropyl-8-(methylamino)-2,7-naphthyridin-3-yl)cyclopropanecarboxamide]
Kd (TYK2 JH2; [4]): ≤ 100 nM | IC50 [1, 5]: > 500 nM
